Results: patent US20120065198A2, “Detection and Treatment of Schizophrenia” (Tokai University Educational System, priority 2007, published 2012)

Tested on: pentosidine formation
Assay: Inhibitory activity on pentosidine formation, samples incubated with BSA and arabinose
Assay type: biochemical
Conditions: incubated with BSA and arabinose instead of patient plasma; for Pentosidine Formation Ratio (%) at 5 Concentration: Table 13
Method: Plasma was collected from hemodialysis patients prior to dialysis with the patients' consent, and the plasma was filtered and sterilized. To the plasma (450 μL) was added solutions of TM-2002 in dimethylsulfoxide (50 μL) (final concentrations: 0.8, 2.0, and 5.0 mM), and the mixtures were incubated for 1 week at 37° C. The levels of the pentosidine formation were measured.
Pentosidine was measured as follows. To each sample (50 μL) after incubation was added an equal volume of 10% trichloroacetic acid, and the mixture was subsequently centrifuged at 5,000 g for 5 minutes. After the supernatant was removed, the pellet was washed with 5% trichloroacetic acid (300 μL). The pellet was dried under reduced pressure, and subsequently hydrolyzed in a 6N HCl solution (100 μL) under a nitrogen atmosphere for 16 hours at 110° C. To the acid hydrolysate was then added 5N NaOH (100 μL) and 0.5 M phosphate buffer (pH 7.4) (200 μL); the mixture was subsequently filtered through a micropore filter with 0.5 μm pores and diluted with PBS. The concentration of the released pentosidine was measured by reverse-phase HPLC using a fluorescence detector (RF-10A, Shimadzu Corporation) (Miyata, T. et al.; Proc. Natl. Acad. Sci. USA, Vol. 93, p. 2353-2358, 1996). The effluent was monitored at the excitation/emission wavelength of 335/385 nm. Synthetic pentosidine was used as the reference material. The detection limit of pentosidine was 0.1 pmol/mg protein.
(2) Other edaravone analogues (Compounds (1) or (2)) were investigated for their inhibitory activities on pentosidine formation in the same manner as in Section (1) above, except that the samples were incubated with BSA and arabinose instead of the patient plasma. In the tables, “-” means that the test was not conducted.

CC1=NN(c2ccccc2)C(=O)C1C(c1ccccc1)c1c(C)nn(-c2ccccc2)c1O (centres unmarked) [compound 9, 4-[(5-hydroxy-3-methyl-1-phenyl-1H-pyrazol-4-yl)-phenyl-methyl]-5-methyl-2-phenyl-2,4-dihydro-pyrazol-3-one]
Pentosidine Formation Ratio (%) at 5 mM Drug Concentration: 7.52%

CC1=NN(c2ccc(C)cc2)C(=O)/C1=C/c1ccc(O)c(O)c1 [compound 44, 4-(3,4-dihydroxy-benzylidene)-5-methyl-2-p-toluyl-2,4-dihydro-pyrazol-3-one]
Pentosidine Formation Ratio (%) at 5 mM Drug Concentration: 66.19%

CC1=NN(c2cccc([N+](=O)[O-])c2)C(=O)C1Sc1nnnn1-c1ccccc1 (centres unmarked) [compound 13, 5-methyl-2-(3-nitro-phenyl)-4-(1-phenyl-1H-tetrazol-5-ylsulfanyl)-2,4-dihydro-pyrazol-3-one]
Pentosidine Formation Ratio (%) at 5 mM Drug Concentration: 74.66%

CC1=NN(c2ccc(S(N)(=O)=O)cc2)C(=O)/C1=C/c1ccc(O)cc1 [compound 49, 4-[4-(4-hydroxy-benzylidene)-3-methyl-5-oxo-4,5-dihydro-pyrazol-1-yl]-benzenesulfonamide]
Pentosidine Formation Ratio (%) at 5 mM Drug Concentration: 7.09%

O=C(O)c1cccc(N2N=C(c3ccccc3)/C(=C/c3ccccc3O)C2=O)c1 [compound 37]
Pentosidine Formation Ratio (%) at 5 mM Drug Concentration: 0.02%

COC(=O)c1ccc(N2N=C(C)/C(=C/c3ccc(-c4ccc(S(N)(=O)=O)cc4)o3)C2=O)cc1 [compound 41, 4-{3-methyl-5-oxo-4-[5-(4-sulfamoyl-phenyl)-furan-2-ylmethylene]-4,5-dihydro-pyrazol-1-yl}-benzoic acid methyl ester]
Pentosidine Formation Ratio (%) at 5 mM Drug Concentration: 37.81%

CC1=NN(c2ccccc2)C(=O)/C1=C/c1c(C)nn(-c2ccccc2)c1O [compound 66, 4-(5-hydroxy-3-methyl-1-phenyl-1H-pyrazol-4-ylmethylene)-5-methyl-2-phenyl-2,4-dihydro-pyrazol-3-one]
Pentosidine Formation Ratio (%) at 5 mM Drug Concentration: 15.17%

COc1ccc(/C=C2/C(=O)N(c3ccccc3)N=C2C)c(OC)c1O [compound 59, 4-(3-hydroxy-2,4-dimethoxy-benzylidene)-5-methyl-2-phenyl-2,4-dihydro-pyrazol-3-one]
Pentosidine Formation Ratio (%) at 5 mM Drug Concentration: 5.3%

CC1=NN(c2ccccc2)C(=O)C1C1C(=O)N(c2ccccc2)N=C1C (centres unmarked) [compound 17, 5,5′-dimethyl-2,2′-diphenyl-2,4,2′,4′-tetrahydro [4,4′]bipyrazole-3,3′-dione]
Pentosidine Formation Ratio (%) at 5 mM Drug Concentration: 60.96%

CC1=NN(c2ccccc2)C(=O)C1Sc1nc(-c2ccc(C)cc2)cs1 (centres unmarked) [compound 21, 5-methyl-2-phenyl-4-(4-p-toluyl-thiazol-2-ylsulfanyl)-2,4-dihydro-pyrazole-3-one]
Pentosidine Formation Ratio (%) at 5 mM Drug Concentration: 42.07%

CCOC(=O)c1ccc(N2N=C(C(F)(F)F)/C(=C/c3cccs3)C2=O)cc1 [compound 50, 4-(5-oxo-4-thiophen-2-ylmethylene-3-trifluoromethyl-4,5-dihydro-pyrazol-1-yl)-benzoic acid ethyl ester]
Pentosidine Formation Ratio (%) at 5 mM Drug Concentration: 63.17%

CC1=NN(c2cccc(Cl)c2)C(=O)/C1=C/c1cc2ccccc2[nH]c1=O [compound 38, 3-[1-(3-chloro-phenyl)-3-methyl-5-oxo-1,5-dihydro-pyrazol-4-ylidenemethyl]-1H-quinolin-2-one]
Pentosidine Formation Ratio (%) at 5 mM Drug Concentration: 84.95%

CC1=NN(c2ccc3ccccc3c2)C(=O)/C1=C/c1ccc(O)cc1 [compound 58]
Pentosidine Formation Ratio (%) at 5 mM Drug Concentration: 0.07%

CC1=NN(c2ccc(Cl)cc2)C(=O)/C1=C/c1cccc(O)c1 [compound 43, 2-(4-chloro-phenyl)-4-(3-hydroxy-benzylidene)-5-methyl-2,4-dihydropyrazol-3-one]
Pentosidine Formation Ratio (%) at 5 mM Drug Concentration: 3.00%

COc1cc(/C=C2\C(=O)N(c3ccc(Cl)cc3)N=C2C(F)(F)F)ccc1O [compound 47, 2-(4-chloro-phenyl)-4-(4-hydroxy-3-methoxy-benzylidene)-5-trifluoromethyl-2,4-dihydro-pyrazol-3-one]
Pentosidine Formation Ratio (%) at 5 mM Drug Concentration: 28.86%

COC(=O)c1cccc(-c2ccc(/C=C3\C(=O)N(c4ccc(S(C)(=O)=O)cc4)N=C3C)o2)c1 [compound 39]
Pentosidine Formation Ratio (%) at 5 mM Drug Concentration: 16.87%

CC1=NN(c2ccccc2)C(=O)C12Sc1ccccc1C2=O (centres unmarked) [compound 28]
Pentosidine Formation Ratio (%) at 5 mM Drug Concentration: 22.83%

CC1=NN(c2ccccc2)C(=O)C1(N1CCOCC1)N1CCOCC1 [compound 26, 5-methyl-4,4-dimorpholine-4-yl-2-phenyl-2,4-dihydro-pyrazol-3-one]
Pentosidine Formation Ratio (%) at 5 mM Drug Concentration: 50.68%

CN(C)c1ccc(/C=C2\C(=O)N(c3ccc(S(N)(=O)=O)cc3)N=C2C(F)(F)F)cc1 [compound 51, 4-[4-(4-dimethylamino-benzyliden)-5-oxo-3-trifluoromethyl-4,5-dihydro-pyrazol-1-yl]-benzenesulfonamide]
Pentosidine Formation Ratio (%) at 5 mM Drug Concentration: 41.68%

CC1=NN(c2ccc(Cl)cc2)C(=O)/C1=C/c1ccc(O)cc1O [compound 42, 2-(4-chloro-phenyl)-4-(2,4-dihydroxy-benzylidene)-5-methyl-2,4-dihydro-pyrazol-3-one]
Pentosidine Formation Ratio (%) at 5 mM Drug Concentration: 68.32%

CC1=NN(c2cccc(F)c2)C(=O)/C1=C\c1ccc(N(C)C)cc1 [compound 35, 4-(4-dimethylamino-benzylidene)-2-(3-fluoro-phenyl)-5-methyl-2,4-dihydro-pyrazol-3-one]
Pentosidine Formation Ratio (%) at 5 mM Drug Concentration: 76.31%

CC1=NN(c2ccccc2Cl)C(=O)/C1=C/c1ccc(O)c(OCO)c1 [compound 31]
Pentosidine Formation Ratio (%) at 5 mM Drug Concentration: 15.57%

COC(=O)c1ccc(N2N=C(C)/C(=C/c3ccc4c(c3)OCO4)C2=O)cc1 [compound 40, 4-(4-benzo[1,3]dioxol-5-ylmethylene-3-methyl-5-oxo-4,5-dihydro-pyrazol-1-yl)-benzoic acid methyl ester]
Pentosidine Formation Ratio (%) at 5 mM Drug Concentration: 32.37%

CC1=NN(c2ccccc2)C(=O)C1CCC(=O)O (centres unmarked) [compound 7]
Pentosidine Formation Ratio (%) at 5 mM Drug Concentration: 64.64%

CC1=NN(c2ccccc2)C(=O)/C1=C/N(C)C [compound 65, 4-dimethylaminomethylene-5-methyl-2-phenyl-2,4-dihydro-pyrazol-3-one]
Pentosidine Formation Ratio (%) at 5 mM Drug Concentration: 62.43%

Cc1ncc2c(c1O)C(c1c(C)nn(-c3ccccc3)c1O)OC2.Cl (centres unmarked) [compound 69, 1-(5-hydroxy-3-methyl-1-phenyl-1H-pyrazol-4-yl)-6-methyl-1,3-dihydro-furo [3,4-c]pyridin-7-ol]
Pentosidine Formation Ratio (%) at 5 Concentration: 2.94%

CC1=NN(c2ccccc2)C(=O)/C1=C/c1ccc(O)cc1 [compound 70, 4-(4-hydroxy-benzylidene)-5-methyl-2-phenyl-2,4-dihydro-pyrazol-3-one]
Pentosidine Formation Ratio (%) at 5 Concentration: 0.04%

CC1=NN(c2ccccc2)C(=O)C1(O)S(=O)(=O)[O-].[Na+] (centres unmarked) [compound 25, sodium 4-hydroxy-3-methyl-5-oxo-1-phenyl-4,5-dihydro-1H-pyrazole-4-sulfonate]
Pentosidine Formation Ratio (%) at 5 mM Drug Concentration: 38.80%

O=C1/C(=C\c2ccc(O)cc2)C(C(F)(F)F)=NN1c1ccccc1 [compound 53, 4-(4-hydroxy-benzylidene)-2-phenyl-5-trifluoromethyl-2,4-dihydro-pyrazol-3-one]
Pentosidine Formation Ratio (%) at 5 mM Drug Concentration: 66.76%
